The record followed here is patent publication US8691865B2 (AbbVie Inc., priority 2008, dated 2014).

One experiment deals with human Cav2.2 (Homo sapiens, UniProt Q00975). As to the kind of experiment: Assessment of calcium channel activity using FLIPR (Ca2+ influx in IMR32 cells). The class given is cell-based.
Chain of human Cav2.2 (Q00975 whole entry): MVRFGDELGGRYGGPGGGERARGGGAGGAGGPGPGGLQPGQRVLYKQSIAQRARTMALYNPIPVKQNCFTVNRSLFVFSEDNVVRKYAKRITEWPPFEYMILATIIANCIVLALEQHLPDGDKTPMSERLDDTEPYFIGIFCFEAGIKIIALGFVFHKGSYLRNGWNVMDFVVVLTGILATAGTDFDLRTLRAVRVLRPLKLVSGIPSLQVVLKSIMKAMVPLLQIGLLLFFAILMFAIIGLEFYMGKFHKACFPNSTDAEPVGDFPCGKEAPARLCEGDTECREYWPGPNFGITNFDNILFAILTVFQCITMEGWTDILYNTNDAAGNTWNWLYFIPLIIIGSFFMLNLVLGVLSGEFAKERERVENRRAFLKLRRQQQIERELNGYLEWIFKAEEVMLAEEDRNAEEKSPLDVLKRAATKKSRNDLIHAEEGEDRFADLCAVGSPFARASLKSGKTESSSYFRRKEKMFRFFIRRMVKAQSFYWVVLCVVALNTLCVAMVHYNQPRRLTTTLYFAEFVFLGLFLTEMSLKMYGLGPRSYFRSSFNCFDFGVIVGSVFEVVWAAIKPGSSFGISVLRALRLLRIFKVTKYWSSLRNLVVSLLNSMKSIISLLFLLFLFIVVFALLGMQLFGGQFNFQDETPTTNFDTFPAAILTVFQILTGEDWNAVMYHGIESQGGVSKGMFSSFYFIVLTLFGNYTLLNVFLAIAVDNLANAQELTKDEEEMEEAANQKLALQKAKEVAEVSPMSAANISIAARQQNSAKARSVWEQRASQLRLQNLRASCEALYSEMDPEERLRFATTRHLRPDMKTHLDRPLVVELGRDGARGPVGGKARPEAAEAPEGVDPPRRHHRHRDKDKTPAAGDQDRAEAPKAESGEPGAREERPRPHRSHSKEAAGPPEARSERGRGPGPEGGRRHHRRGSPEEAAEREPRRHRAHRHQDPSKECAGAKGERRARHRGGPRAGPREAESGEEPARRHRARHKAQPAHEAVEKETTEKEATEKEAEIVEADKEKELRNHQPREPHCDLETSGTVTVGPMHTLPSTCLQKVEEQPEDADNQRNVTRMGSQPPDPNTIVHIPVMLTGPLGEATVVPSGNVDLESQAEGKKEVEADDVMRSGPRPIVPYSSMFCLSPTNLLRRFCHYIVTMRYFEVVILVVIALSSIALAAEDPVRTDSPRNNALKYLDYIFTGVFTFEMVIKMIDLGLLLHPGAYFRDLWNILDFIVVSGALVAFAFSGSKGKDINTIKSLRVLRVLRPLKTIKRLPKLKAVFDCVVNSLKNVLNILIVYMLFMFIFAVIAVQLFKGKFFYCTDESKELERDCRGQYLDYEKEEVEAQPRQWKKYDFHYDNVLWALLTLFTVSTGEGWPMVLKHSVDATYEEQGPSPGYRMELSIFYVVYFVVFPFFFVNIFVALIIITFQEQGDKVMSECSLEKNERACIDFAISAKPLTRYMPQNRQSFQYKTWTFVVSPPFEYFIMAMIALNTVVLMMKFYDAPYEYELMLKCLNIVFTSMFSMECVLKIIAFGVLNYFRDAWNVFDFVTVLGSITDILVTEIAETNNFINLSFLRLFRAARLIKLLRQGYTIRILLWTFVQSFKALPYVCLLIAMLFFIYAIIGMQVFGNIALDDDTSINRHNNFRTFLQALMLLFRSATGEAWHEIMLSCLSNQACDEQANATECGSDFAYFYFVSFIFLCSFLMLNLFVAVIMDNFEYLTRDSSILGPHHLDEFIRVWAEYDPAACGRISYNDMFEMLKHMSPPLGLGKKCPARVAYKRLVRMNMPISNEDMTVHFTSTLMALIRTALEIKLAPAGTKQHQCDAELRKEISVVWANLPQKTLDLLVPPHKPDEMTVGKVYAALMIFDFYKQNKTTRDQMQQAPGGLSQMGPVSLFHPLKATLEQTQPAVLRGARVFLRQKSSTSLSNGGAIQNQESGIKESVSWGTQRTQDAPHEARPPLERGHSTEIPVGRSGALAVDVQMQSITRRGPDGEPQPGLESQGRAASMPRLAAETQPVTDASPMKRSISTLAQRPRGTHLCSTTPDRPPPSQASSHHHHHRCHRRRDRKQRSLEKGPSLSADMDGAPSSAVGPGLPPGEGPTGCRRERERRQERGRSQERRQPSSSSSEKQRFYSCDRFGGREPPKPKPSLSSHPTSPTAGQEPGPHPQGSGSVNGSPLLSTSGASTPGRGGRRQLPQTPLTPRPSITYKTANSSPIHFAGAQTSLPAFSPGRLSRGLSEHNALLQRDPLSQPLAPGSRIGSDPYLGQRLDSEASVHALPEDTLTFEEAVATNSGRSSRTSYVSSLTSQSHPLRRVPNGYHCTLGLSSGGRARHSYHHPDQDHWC
Chain of human Cav2.2 (P54289 25-956 partner limits assumed): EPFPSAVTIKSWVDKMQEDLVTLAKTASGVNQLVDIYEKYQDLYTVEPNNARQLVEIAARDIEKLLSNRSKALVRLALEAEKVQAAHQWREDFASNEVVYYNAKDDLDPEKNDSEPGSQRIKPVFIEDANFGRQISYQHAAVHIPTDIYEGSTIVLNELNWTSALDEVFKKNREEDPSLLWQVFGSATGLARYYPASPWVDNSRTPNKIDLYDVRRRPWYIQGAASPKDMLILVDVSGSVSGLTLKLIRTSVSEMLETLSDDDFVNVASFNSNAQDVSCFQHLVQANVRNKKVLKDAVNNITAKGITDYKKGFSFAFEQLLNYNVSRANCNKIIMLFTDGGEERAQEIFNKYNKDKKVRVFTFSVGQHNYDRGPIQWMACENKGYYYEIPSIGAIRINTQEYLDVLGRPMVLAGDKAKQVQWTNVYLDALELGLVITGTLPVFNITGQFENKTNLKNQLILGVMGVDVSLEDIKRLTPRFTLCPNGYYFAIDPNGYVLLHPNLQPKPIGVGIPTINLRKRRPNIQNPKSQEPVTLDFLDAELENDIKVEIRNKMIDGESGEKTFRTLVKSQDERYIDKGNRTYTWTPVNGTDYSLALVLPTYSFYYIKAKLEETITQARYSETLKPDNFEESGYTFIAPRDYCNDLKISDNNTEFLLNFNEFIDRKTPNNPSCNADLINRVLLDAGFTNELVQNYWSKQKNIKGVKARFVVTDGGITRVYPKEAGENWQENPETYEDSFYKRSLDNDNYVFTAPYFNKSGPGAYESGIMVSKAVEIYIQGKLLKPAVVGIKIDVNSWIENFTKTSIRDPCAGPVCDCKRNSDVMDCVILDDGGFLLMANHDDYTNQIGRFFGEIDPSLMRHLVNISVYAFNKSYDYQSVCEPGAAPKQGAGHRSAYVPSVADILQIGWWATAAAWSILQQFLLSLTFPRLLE
Chain of human Cav2.2 (P54289 957-1103 partner limits assumed): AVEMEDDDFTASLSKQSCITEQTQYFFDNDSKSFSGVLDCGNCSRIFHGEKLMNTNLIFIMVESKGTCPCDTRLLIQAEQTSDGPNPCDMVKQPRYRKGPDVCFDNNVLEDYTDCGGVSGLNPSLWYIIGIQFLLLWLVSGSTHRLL
Chain of human Cav2.2 (P54284 whole entry partner): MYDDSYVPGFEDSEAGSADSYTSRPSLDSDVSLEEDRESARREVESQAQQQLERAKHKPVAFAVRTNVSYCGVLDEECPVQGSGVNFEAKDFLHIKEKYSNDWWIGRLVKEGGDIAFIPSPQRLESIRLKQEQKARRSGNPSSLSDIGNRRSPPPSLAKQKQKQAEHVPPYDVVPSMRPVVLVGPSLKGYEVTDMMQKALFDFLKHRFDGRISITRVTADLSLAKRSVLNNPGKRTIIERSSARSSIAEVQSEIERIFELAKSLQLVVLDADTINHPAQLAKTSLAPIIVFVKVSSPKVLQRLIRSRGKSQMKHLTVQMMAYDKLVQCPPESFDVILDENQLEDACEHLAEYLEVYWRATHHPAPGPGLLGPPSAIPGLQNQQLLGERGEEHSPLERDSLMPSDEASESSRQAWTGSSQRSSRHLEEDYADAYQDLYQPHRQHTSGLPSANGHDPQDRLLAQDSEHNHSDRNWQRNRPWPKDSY
Settings: not given
The method, boiled down: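 Human neuroblastoma IMR32 cells were seeded at 1−1.2×10^5 cells/well and cultured 48 h at 37 °C before FLIPR calcium influx measurement. Percent inhibition at each concentration was calculated against the no-inhibitor signal, and IC50 came from sigmoidal dose-response fits.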
In general, IC50 refers to the concentration that gives 50% inhibition. As for `N[C@@H](CC1CCCCC1)C(=O)N[C@H]1CC[C@@H]2CN(S(=O)(=O)c3ccc(C(F)(F)F)cc3)C[C@@H]21` [Example 426, 3-cyclohexyl-N^1-((3aR,4S,6aS)-2-{[4-(trifluoromethyl)phenyl]sulfonyl}octahydrocyclopenta[c]pyrrol-4-yl)-L-alaninamide], the half-inhibitory concentration (IC50) stood at 1.79 µM.
Turning to `CN[C@@H](Cc1ccccc1)C(=O)N[C@H]1CC[C@@H]2CN(S(=O)(=O)c3ccc(C(F)(F)F)cc3Cl)C[C@@H]21` [Example 432], the IC50 was determined as 1.66 µM.
On the same count and under the same terms, the same measure for `CCC[C@H](NC)C(=O)N(C)[C@H]1CC[C@@H]2CN(S(=O)(=O)c3ccc(C(F)(F)F)cc3)C[C@@H]21` [Example 438, N^1,N^2-dimethyl-N^1-((3aR,4S,6aS)-2-{[4-(trifluoromethyl)phenyl]sulfonyl}octahydrocyclopenta[c]pyrrol-4-yl)-L-norvalinamide]: 5.7 µM.
As for `CC(C)(C)C[C@H](NC(=O)OC(C)(C)C)C(=O)N[C@H]1CC[C@@H]2CN(C(=O)[C@H](CC(C)(C)C)NC(=O)OC(C)(C)C)C[C@@H]21` [Example 463, tert-butyl(S)-1-((3aR,4S,6aS)-4-((S)-2-(tert-butoxycarbonylamino)-4,4-dimethylpentanamido)hexahydrocyclopenta[c]pyrrol-2(1H)-yl)-4,4-dimethyl-1-oxopentan-2-ylcarbamate], the IC50 was 2.03 µM.
For `CC(C)(C)C[C@H](N)C(=O)N[C@H]1CC[C@@H]2CN(C(=O)[C@@H](N)CC(C)(C)C)C[C@@H]21` [Example 464, 4-methyl-N^1-[(3aR,4S,6aS)-2-(4-methyl-L-leucyl)octahydrocyclopenta[c]pyrrol-4-yl]-L-leucinamide], the IC50 was over 30 µM.
Still for that read-out and setting: the same measure for `CC(C)(C)C[C@H](N)C(=O)N[C@H]1CC[C@@H]2CN(C(=O)[C@@H](N)Cc3ccccc3)C[C@@H]21` [Example 465, 4-methyl-N^1-[(3aR,4S,6aS)-2-L-phenylalanyloctahydrocyclopenta[c]pyrrol-4-yl]-L-leucinamide]: over 30 µM; for `CC(C)(C)C[C@H](NCC1CC1)C(=O)N[C@H]1CC[C@@H]2CN(c3ccc(C(F)(F)F)cn3)C[C@@H]21` [Example 478, N^2-(cyclopropylmethyl)-4-methyl-N^1-{(3aR,4S,6aS)-2-[5-(trifluoromethyl)pyridin-2-yl]octahydrocyclopenta[c]pyrrol-4-yl}-L-leucinamide]: 0.46 µM.
Same read-out and setting: the same measure for `CC(C)N[C@@H](CC(C)(C)C)C(=O)N[C@H]1CC[C@@H]2CN(C(=O)[C@H](Cc3ccccc3)NC(C)C)C[C@@H]21` [Example 489, N^2-isopropyl-N^1-[(3aR,4S,6aS)-2-(N-isopropyl-L-phenylalanyl)octahydrocyclopenta[c]pyrrol-4-yl]-4-methyl-L-leucinamide]: 15.7 µM; for `CCC[C@H](NC(C)C)C(=O)N[C@H]1CC[C@@H]2CN(Cc3ccccc3)C[C@@H]21` [Example 494, N^1-[(3aR,4S,6aS)-2-benzyloctahydrocyclopenta[c]pyrrol-4-yl]-N^2-isopropyl-L-norvalinamide]: over 30 µM; for `CCC[C@H](NC(C)C)C(=O)N[C@@H]1CC[C@H]2CN(Cc3ccccc3)C[C@H]21` [Example 495, N^1-[(3aS,4R,6aR)-2-benzyloctahydrocyclopenta[c]pyrrol-4-yl]-N^2-isopropyl-L-norvalinamide]: over 30 µM.
On the same count and under the same terms, the same measure for `CC(C)(C)C[C@@H](C(=O)N[C@H]1CC[C@@H]2CN(S(=O)(=O)c3ccc(C(F)(F)F)cc3)C[C@@H]21)N(C1CC1)C1CC1` [Example 500, N^2,N^2-dicyclopropyl-4-methyl-N^1-((3aR,4S,6aS)-2-{[4-(trifluoromethyl)phenyl]sulfonyl}octahydrocyclopenta[c]pyrrol-4-yl)-L-leucinamide]: 1.69 µM; for `CS(=O)(=O)N1CCCC[C@H]1C(=O)N[C@@H]1CC[C@H]2CN(Cc3ccccc3)C[C@H]21` [Example 514, (2S)-N-[(3aS,4R,6aR)-2-benzyloctahydrocyclopenta[c]pyrrol-4-yl]-1-(methylsulfonyl)piperidine-2-carboxamide]: over 22.5 µM; for `CCC[C@@H](C(=O)N[C@H]1CC[C@@H]2CN(S(=O)(=O)c3cccs3)C[C@@H]21)N(C)C(=O)OC(C)(C)C` [Example 531, tert-butyl methyl((S)-1-oxo-1-((3aR,4S,6aS)-2-(thiophen-2-ylsulfonyl)octahydrocyclopenta[c]pyrrol-4-ylamino)pentan-2-yl)carbamate]: 3.49 µM.
Consider `CCC[C@H](NC)C(=O)N[C@H]1CC[C@@H]2CN(S(=O)(=O)c3ccc(OC(F)(F)F)cc3)C[C@@H]21` [Example 532, N^2-methyl-N^1-((3aR,4S,6aS)-2-{[4-(trifluoromethoxy)phenyl]sulfonyl}octahydrocyclopenta[c]pyrrol-4-yl)-L-norvalinamide], for which the IC50 turned out to be 3.16 µM.
On the same count and under the same terms, the value for `CCC[C@H](NC)C(=O)N[C@H]1CC[C@@H]2CN(S(=O)(=O)c3cccnc3)C[C@@H]21` [Example 535, N^2-methyl-N^1-[(3aR,4S,6aS)-2-(pyridin-3-ylsulfonyl)octahydrocyclopenta[c]pyrrol-4-yl]-L-norvalinamide] was over 30 µM.

The same experiment, now with this note: read-out: IC50 (μM) or percent inhibition (* indicates 3 minute incubation, otherwise 60 minute); IC50; 60 minute pre-incubation with compound; IMR32 cells, 80 mM KCl depolarization.
On to `CN[C@@H](CC(C)(C)C)C(=O)N(C)[C@H]1CC[C@@H]2CN(S(=O)(=O)c3ccc(C(F)(F)F)cc3Cl)C[C@@H]21` [Example 439, N^1-((3aR,4S,6aS)-2-{[2-chloro-4-(trifluoromethyl)phenyl]sulfonyl}octahydrocyclopenta[c]pyrrol-4-yl)-N^1,N^2,4-trimethyl-L-leucinamide], for which the IC50 was determined as 1.42 µM.
Still for that read-out and setting: the same measure for `CN[C@@H](CC(C)C)C(=O)N[C@@H]1CC[C@H]2CN(S(=O)(=O)c3ccccc3)C[C@H]21` [Example 448, N^2-methyl-N^1-[(3aS,4R,6aR)-2-(phenylsulfonyl)octahydrocyclopenta[c]pyrrol-4-yl]-L-leucinamide]: 12.4 µM.
As for `CN[C@@H](CC(C)C)C(=O)N[C@@H]1CC[C@H]2CN(Cc3ccc(F)cc3)C[C@H]21` [Example 450, N^1-[(3aS,4R,6aR)-2-(4-fluorobenzyl)octahydrocyclopenta[c]pyrrol-4-yl]-N^2-methyl-L-leucinamide], the IC50 worked out at 9.26 µM.
As for `O=S(=O)(c1cccc(C(F)(F)F)c1)N1C[C@@H]2CC[C@@H](NC(c3ccccc3)c3ccccc3)[C@@H]2C1` [Example 467, (3aS,4R,6aR)-N-benzhydryl-2-{[3-(trifluoromethyl)phenyl]sulfonyl}octahydrocyclopenta[c]pyrrol-4-amine], the half-inhibitory concentration (IC50) amounted to 3.5 µM.
On the same count and under the same terms, the value for `O=S(=O)(c1cccc(C(F)(F)F)c1)N1C[C@H]2CC[C@H](NC(c3ccccc3)c3ccccc3)[C@H]2C1` [Example 468, (3aR,4S,6aS)-N-benzhydryl-2-{[3-(trifluoromethyl)phenyl]sulfonyl}octahydrocyclopenta[c]pyrrol-4-amine] was 2.26 µM; that for `CC(C)(C)C[C@H](NCC1CC1)C(=O)N[C@H]1CC[C@@H]2CN(c3cccc(C(F)(F)F)n3)C[C@@H]21` [Example 479, N^2-(cyclopropylmethyl)-4-methyl-N^1-{(3aR,4S,6aS)-2-[6-(trifluoromethyl)pyridin-2-yl]octahydrocyclopenta[c]pyrrol-4-yl}-L-leucinamide] was 0.26 µM.
Take `CC(C)N[C@@H](CC1CCCCC1)C(=O)N[C@H]1CC[C@@H]2CN(S(=O)(=O)c3ccc(C(F)(F)F)cc3)C[C@@H]21` [Example 485, 3-cyclohexyl-N^2-isopropyl-N^1-((3aR,4S,6aS)-2-{[4-(trifluoromethyl)phenyl]sulfonyl}octahydrocyclopenta[c]pyrrol-4-yl)-L-alaninamide]: the IC50 is 1.49 µM.
Same read-out and setting: the value for `CC(C)[C@@H](CC(=O)N[C@H]1CC[C@@H]2CN(S(=O)(=O)c3cccc(C(F)(F)F)c3)C[C@@H]21)N(C)C` [Example 498, (3R)-3-(dimethylamino)-4-methyl-N-((3aR,4S,6aS)-2-{[3-(trifluoromethyl)phenyl]sulfonyl}octahydrocyclopenta[c]pyrrol-4-yl)pentanamide] was 1.59 µM.
On the same count and under the same terms, the value for `CC(C)(C)CN[C@@H](CC(C)(C)C)C(=O)N[C@H]1CC[C@@H]2CN(S(=O)(=O)c3ccc(C(F)(F)F)cc3)C[C@@H]21` [Example 505, 4-methyl-N^2-neopentyl-N^1-((3aR,4S,6aS)-2-{[4-(trifluoromethyl)phenyl]sulfonyl}octahydrocyclopenta[c]pyrrol-4-yl)-L-leucinamide] was 2.23 µM; that for `CCC[C@H](NC1CCCC1)C(=O)N[C@H]1CC[C@@H]2CN(S(=O)(=O)c3ccc(C(F)(F)F)cc3)C[C@@H]21` [Example 506, N^2-cyclopentyl-N^1-((3aR,4S,6aS)-2-{[4-(trifluoromethyl)phenyl]sulfonyl}octahydrocyclopenta[c]pyrrol-4-yl)-L-norvalinamide] was 1.71 µM.
Turning to `CC(C)C[C@@H](C(=O)N[C@H]1CC[C@H]2CN(Cc3cccc(C(F)(F)F)c3)C[C@H]21)N(C)C` [Example 509, N^2,N^2-dimethyl-N^1-{(3aS,4S,6aR)-2-[3-(trifluoromethyl)benzyl]octahydrocyclopenta[c]pyrrol-4-yl}-L-leucinamide], the IC50 amounted to 4.55 µM.
Regarding `CC(C)(C)[C@H](NS(C)(=O)=O)C(=O)N[C@H]1CC[C@@H]2CN(Cc3ccc(C(F)(F)F)cc3)C[C@@H]21` [Example 520, 3-methyl-N^2-(methylsulfonyl)-N^1-{(3aR,4S,6aS)-2-[4-(trifluoromethyl)benzyl]octahydrocyclopenta[c]pyrrol-4-yl}-L-valinamide], the IC50 was 12.8 µM.
Still for that read-out and setting: the value for `CC(C)C[C@H](NS(=O)(=O)c1ccccc1)C(=O)N[C@@H]1CC[C@H]2CN(Cc3cccc(C(F)(F)F)c3)C[C@H]21` [Example 523, N^2-(phenylsulfonyl)-N^1-{(3aS,4R,6aR)-2-[3-(trifluoromethyl)benzyl]octahydrocyclopenta[c]pyrrol-4-yl}-L-leucinamide] was 4.44 µM.
Still for that read-out and setting: the same measure for `CCC[C@H](NC)C(=O)N[C@H]1CC[C@@H]2CN(S(=O)(=O)c3cccs3)C[C@@H]21` [Example 533, N^2-methyl-N^1-[(3aR,4S,6aS)-2-(thien-2-ylsulfonyl)octahydrocyclopenta[c]pyrrol-4-yl]-L-norvalinamide]: 9.68 µM.
